Here are results for 26 compounds from patent US20160060260A1, “BROMODOMAIN INHIBITORS FOR TREATING DISEASE” (Board of Regents, The University of Texas System, priority 2014, published 2016).

For the experiment, the target named is T1, Recombinant human His-tagged Trim24-PHD-bromodomain (Homo sapiens, UniProt O15164).
T1 construct: Recombinant human His-tagged Trim24-PHD-bromodomain (produced in-house); made in house
T1 sequence (O15164 824-1006 limits assumed): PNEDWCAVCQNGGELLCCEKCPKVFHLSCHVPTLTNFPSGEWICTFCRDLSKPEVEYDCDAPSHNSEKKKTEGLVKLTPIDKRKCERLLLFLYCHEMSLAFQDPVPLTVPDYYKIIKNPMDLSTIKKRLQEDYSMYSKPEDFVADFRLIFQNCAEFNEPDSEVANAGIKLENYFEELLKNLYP
In words: Trim24 AlphaScreen Assay. Conditions: 5 nM Trim24 protein, 15 nM biotinylated H3K23ac (1-33aa) peptide. In kind it is binding. The method in brief: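 His-tagged Trim24-PHD-bromodomain, biotinylated H3K23ac (1-33aa) peptide and compound incubated 1 h at room temperature in 50 mM Hepes pH 7.5, 100 mM NaCl, 0.12 mM Triton X-100.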
As for `CCCOc1cc(OCCCCN)cc(Oc2cc3c(cc2NS(=O)(=O)c2cn(C)cn2)n(C)c(=O)n3C)c1` [Example 186, N-(6-(3-(4-aminobutoxy)-5-propoxyphenoxy)-1,3-dimethyl-2-oxo-2,3-dihydro-1H-benzo[d]imidazol-5-yl)-1-methyl-1H-imidazole-4-sulfonamide], the IC50 was 0.001 to 0.01 µM. On to `CCCOc1cc(OCCCCCCN)cc(Oc2cc3c(cc2NS(=O)(=O)c2ccccn2)n(C)c(=O)n3C)c1` [Example 187, N-(6-(3-((6-aminohexyl)oxy)-5-propoxyphenoxy)-1,3-dimethyl-2-oxo-2,3-dihydro-1H-benzo[d]imidazol-5-yl)pyridine-2-sulfonamide], for which the IC50 lay within 0.01 to 0.1 µM. Next, `CCCOc1cc(OCCCCCCN(C)C)cc(Oc2cc3c(cc2NS(=O)(=O)c2cn(C)cn2)n(C)c(=O)n3C)c1` [Example 188, N-(6-(3-((6-(dimethylamino)hexyl)oxy)-5-propoxyphenoxy)-1,3-dimethyl-2-oxo-2,3-dihydro-1H-benzo[d]imidazol-5-yl)-1-methyl-1H-imidazole-4-sulfonamide]: 0.01 to 0.1 µM; `CCCOc1cc(OCCCCCCN)cc(Oc2cc3c(cc2NS(=O)(=O)c2cnn(C)c2C)n(C)c(=O)n3C)c1` [Example 189, N-(6-(3-((6-aminohexyl)oxy)-5-propoxyphenoxy)-1,3-dimethyl-2-oxo-2,3-dihydro-1H-benzo[d]imidazol-5-yl)-1,5-dimethyl-1H-pyrazole-4-sulfonamide]: 0.001 to 0.01 µM. On to `CCCOc1cc(OCCCCCCN)cc(Oc2cc3c(cc2NS(=O)(=O)c2cccc(C#N)c2)n(C)c(=O)n3C)c1` [Example 190, N-(6-(3-((6-aminohexyl)oxy)-5-propoxyphenoxy)-1,3-dimethyl-2-oxo-2,3-dihydro-1H-benzo[d]imidazol-5-yl)-3-cyanobenzenesulfonamide], for which the concentration for half-maximal inhibition (IC50) was in the range of 0.01 to 0.1 µM. Regarding `CCCOc1cc(OCCCCCCN)cc(Oc2cc3c(cc2NS(=O)(=O)c2cccc(C(=O)OC)c2)n(C)c(=O)n3C)c1` [Example 191, methyl 3-(N-(6-(3-((6-aminohexyl)oxy)-5-propoxyphenoxy)-1,3-dimethyl-2-oxo-2,3-dihydro-1H-benzo[d]imidazol-5-yl)sulfamoyl)benzoate], the half-inhibitory concentration (IC50) was 0.01 to 0.1 µM.

For `COC(=O)c1cccc(S(=O)(=O)Nc2cc3c(cc2Oc2cccc(OCC(F)(F)F)c2)n(C)c(=O)n3C)c1` [Example 192, methyl 3-(N-(1,3-dimethyl-2-oxo-6-(3-(2,2,2-trifluoroethoxy)phenoxy)-2,3-dihydro-1H-benzo[d]imidazol-5-yl)sulfamoyl)benzoate], the IC50 was 0.01 to 0.1 µM. `C=CCOc1cccc(S(=O)(=O)Nc2cc3c(cc2Oc2cccc(OCC(F)(F)F)c2)n(C)c(=O)n3C)c1` [Example 193, 3-(allyloxy)-N-(1,3-dimethyl-2-oxo-6-(3-(2,2,2-trifluoroethoxy)phenoxy)-2,3-dihydro-1H-benzo[d]imidazol-5-yl)benzenesulfonamide]: the IC50 lay in the range of 0.1 to 1 µM.

In the case of `COc1ccc(S(=O)(=O)Nc2cc3c(cc2Oc2cc(OCCCCCCN)cc(OCC(F)(F)F)c2)n(C)c(=O)n3C)cc1OC` [Example 194, N-(6-(3-((6-aminohexyl)oxy)-5-(2,2,2-trifluoroethoxy)phenoxy)-1,3-dimethyl-2-oxo-2,3-dihydro-1H-benzo[d]imidazol-5-yl)-3,4-dimethoxybenzenesulfonamide], the 50% inhibitory concentration (IC50) lay within 0.01 to 0.1 µM. The figure for `COCCCOc1cc(OCC(F)(F)F)cc(Oc2cc3c(cc2NS(=O)(=O)c2ccc(OC)c(OC)c2)n(C)c(=O)n3C)c1` [Example 195] is 0.01 to 0.1 µM; for `CCCOc1cc(OCCCCN)cc(Oc2cc3c(cc2NS(=O)(=O)c2ccc(OC)c(OC)c2)n(C)c(=O)n3C)c1` [Example 196, N-(6-(3-(4-aminobutoxy)-5-propoxyphenoxy)-1,3-dimethyl-2-oxo-2,3-dihydro-1H-benzo[d]imidazol-5-yl)-3,4-dimethoxybenzenesulfonamide] it is 0.001 to 0.01 µM. Next, `CCCOc1cc(OCCCCCN)cc(Oc2cc3c(cc2NS(=O)(=O)c2cn(C)cn2)n(C)c(=O)n3C)c1` [Example 197, N-(6-(3-((5-aminopentyl)oxy)-5-propoxyphenoxy)-1,3-dimethyl-2-oxo-2,3-dihydro-1H-benzo[d]imidazol-5-yl)-1-methyl-1H-imidazole-4-sulfonamide]: 0.01 to 0.1 µM; `CCCOc1cc(OCCCCN)cc(Oc2cc3c(cc2NS(=O)(=O)c2ccccn2)n(C)c(=O)n3C)c1` [Example 198, N-(6-(3-(4-aminobutoxy)-5-propoxyphenoxy)-1,3-dimethyl-2-oxo-2,3-dihydro-1H-benzo[d]imidazol-5-yl)pyridine-2-sulfonamide]: 0.01 to 0.1 µM. The figure for `CCCOc1cc(OCCCCN)cc(Oc2cc3c(cc2NS(=O)(=O)c2cnn(C)c2C)n(C)c(=O)n3C)c1` [Example 199, N-(6-(3-(4-aminobutoxy)-5-propoxyphenoxy)-1,3-dimethyl-2-oxo-2,3-dihydro-1H-benzo[d]imidazol-5-yl)-1,5-dimethyl-1H-pyrazole-4-sulfonamide] is 0.01 to 0.1 µM; for `Cc1c(S(=O)(=O)Nc2cc3c(cc2Oc2cc(OCCCCCCN)cc(OCC(F)(F)F)c2)n(C)c(=O)n3C)cnn1C` [Example 200, N-(6-(3-((6-aminohexyl)oxy)-5-(2,2,2-trifluoroethoxy)phenoxy)-1,3-dimethyl-2-oxo-2,3-dihydro-1H-benzo[d]imidazol-5-yl)-1,5-dimethyl-1H-pyrazole-4-sulfonamide] it is 0.001 to 0.01 µM; for `Cn1c(=O)n(C)c2cc(Oc3cc(OCCCCCCN)cc(OCC(F)(F)F)c3)c(NS(=O)(=O)c3cccnc3)cc21` [Example 201, N-(6-(3-((6-aminohexyl)oxy)-5-(2,2,2-trifluoroethoxy)phenoxy)-1,3-dimethyl-2-oxo-2,3-dihydro-1H-benzo[d]imidazol-5-yl)pyridine-3-sulfonamide] it is 0.001 to 0.01 µM. On to `Cn1cnc(S(=O)(=O)Nc2cc3c(cc2Oc2cc(OCCCCCCN)cc(OCC(F)(F)F)c2)n(C)c(=O)n3C)c1` [Example 202, N-(6-(3-((6-aminohexyl)oxy)-5-(2,2,2-trifluoroethoxy)phenoxy)-1,3-dimethyl-2-oxo-2,3-dihydro-1H-benzo[d]imidazol-5-yl)-1-methyl-1H-imidazole-4-sulfonamide], for which the IC50 was 0.001 to 0.01 µM. As to `COc1ccc(S(=O)(=O)Nc2cc3c(cc2Oc2cc(OCCCCCCN)cc(OCC(F)(F)F)c2)n(C)c(=O)n3C)cn1` [Example 203, N-(6-(3-((6-aminohexyl)oxy)-5-(2,2,2-trifluoroethoxy)phenoxy)-1,3-dimethyl-2-oxo-2,3-dihydro-1H-benzo[d]imidazol-5-yl)-6-methoxypyridine-3-sulfonamide], the IC50 lay within 0.01 to 0.1 µM. Next, `COCCCOc1cc(OCC(F)(F)F)cc(Oc2cc3c(cc2NS(=O)(=O)c2cnn(C)c2C)n(C)c(=O)n3C)c1` [Example 204, N-(6-(3-(3-methoxypropoxy)-5-(2,2,2-trifluoroethoxy)phenoxy)-1,3-dimethyl-2-oxo-2,3-dihydro-1H-benzo[d]imidazol-5-yl)-1,5-dimethyl-1H-pyrazole-4-sulfonamide]: 0.01 to 0.1 µM; `COc1ccc(S(=O)(=O)Nc2cc3c(cc2Oc2cc(OCCCCCCN(C)C)cc(OCC(F)(F)F)c2)n(C)c(=O)n3C)cc1OC` [Example 205, N-(6-(3-((6-(dimethylamino)hexyl)oxy)-5-(2,2,2-trifluoroethoxy)phenoxy)-1,3-dimethyl-2-oxo-2,3-dihydro-1H-benzo[d]imidazol-5-yl)-3,4-dimethoxybenzenesulfonamide]: 0.001 to 0.01 µM.

Turning to `CCCOc1cc(OCCCOC)cc(Oc2cc3c(cc2NS(=O)(=O)c2cn(C)nc2C)n(C)c(=O)n3C)c1` [Example 206, N-(6-(3-(3-methoxypropoxy)-5-propoxyphenoxy)-1,3-dimethyl-2-oxo-2,3-dihydro-1H-benzo[d]imidazol-5-yl)-1,3-dimethyl-1H-pyrazole-4-sulfonamide], the half-inhibitory concentration (IC50) is 0.01 to 0.1 µM. The figure for `CCCOc1cc(OCCCOC)cc(Oc2cc3c(cc2NS(=O)(=O)c2cnn(CC)c2)n(C)c(=O)n3C)c1` [Example 207, 1-ethyl-N-(6-(3-(3-methoxypropoxy)-5-propoxyphenoxy)-1,3-dimethyl-2-oxo-2,3-dihydro-1H-benzo[d]imidazol-5-yl)-1H-pyrazole-4-sulfonamide] is 0.01 to 0.1 µM; for `CCCOc1cccc(Oc2cc3c(cc2NS(=O)(=O)c2cccc(C(=O)O)c2)n(C)c(=O)n3C)c1` [Example 208, 3-(N-(1,3-dimethyl-2-oxo-6-(3-propoxyphenxoy)-2,3-dihydro-1H-benzo[d]imidazol-5-yl)sulfamoyl)benzoic acid] it is 0.01 to 0.1 µM. Next, `Cc1c(S(=O)(=O)Nc2cc3c(cc2Oc2cc(OCCCCN)cc(OCC(F)(F)F)c2)n(C)c(=O)n3C)cnn1C` [Example 209, N-(6-(3-(4-aminobutoxy)-5-(2,2,2-trifluoroethoxy)phenoxy)-1,3-dimethyl-2-oxo-2,3-dihydro-1H-benzo[d]imidazol-5-yl)-1,5-dimethyl-1H-pyrazole-4-sulfonamide]: 0.001 to 0.01 µM; `COc1ccc(S(=O)(=O)Nc2cc3c(cc2Oc2cc(OCCCCN)cc(OCC(F)(F)F)c2)n(C)c(=O)n3C)cc1OC` [Example 210, N-(6-(3-(4-aminobutoxy)-5-(2,2,2-trifluoroerthoxy)phenoxy)-1,3-dimethyl-2-oxo-2,3-dihydro-1H-benzo[d]imidazol-5-yl)-3,4-dimethoxybenzenesulfonamide]: 0.01 to 0.1 µM.

For `COc1ccc(S(=O)(=O)Nc2cc3c(cc2Oc2cc(OCCCCN(C)C)cc(OCC(F)(F)F)c2)n(C)c(=O)n3C)cc1OC` [Example 211, N-(6-(3-(4-(dimethylamino)butoxy)-5-(2,2,2-trifluoroethoxy)phenoxy)-1,3-dimethyl-2-oxo-2,3-dihydro-1H-benzo[d]imidazol-5-yl)-3,4-dimethoxybenzenesulfonamide], the IC50 lay within 0.001 to 0.01 µM.
